Data on one compound can be found in patent US20020103163A1, “Acetylenic sulfonamide thiol TACE inhibitors” (American Cyanamid Company, priority 1999, published 2002).

One assay deals with T1, MMP-1 (Homo sapiens, UniProt P03956).
T1 sequence (P03956 100-469): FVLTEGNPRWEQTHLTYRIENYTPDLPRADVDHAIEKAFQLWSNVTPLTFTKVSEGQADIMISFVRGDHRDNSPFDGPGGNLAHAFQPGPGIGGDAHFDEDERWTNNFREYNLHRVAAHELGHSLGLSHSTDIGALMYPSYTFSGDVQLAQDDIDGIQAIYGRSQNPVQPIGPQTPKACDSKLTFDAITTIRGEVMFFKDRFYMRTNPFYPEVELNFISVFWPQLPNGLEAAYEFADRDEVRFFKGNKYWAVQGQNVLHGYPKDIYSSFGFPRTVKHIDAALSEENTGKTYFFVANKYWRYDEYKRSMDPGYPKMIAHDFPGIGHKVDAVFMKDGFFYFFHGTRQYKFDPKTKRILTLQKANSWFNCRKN
Briefly: MMP-1 inhibition (thiopeptide or fluorescent peptide substrate). The assay is classed as biochemical. The method, then: (§1) These standard pharmacological test procedures are based on the cleavage of a thiopeptide substrates such as Ac-Pro-Leu-Gly(2-mercapto-4-methyl-pentanoyl)-Leu-Gly-OEt by the matrix metalloproteinases MMP-1, MMP-13 (collagenases) or MMP-9 (gelatinase), which results in the release of a substrate product that reacts calorimetrically with DTNB (5,5′-dithiobis(2-nitro-benzoic acid)). The enzyme activity is measured by the rate of the color increase. The thiopeptide substrate is made up fresh as a 20 mM stock in 100% DMSO and the DTNB is dissolved in 100% DMSO as a 100 mM stock and stored in the dark at room temperature. […] The buffer enzyme, vehicle or inhibitor, and DTNB/substrate are added in this order to a 96 well plate (total reaction volume of 200 μl) and the increase in color is monitored spectrophotometrically for 5 minutes at 405 nm on a plate reader and the increase in color over time is plotted as a linear line.
(§2) Alternatively, a fluorescent peptide substrate is used. […] Upon cleavage of the substrate by an MMP, the fluorescence that is generated is quantitated on the fluorescence plate reader. […] The reaction is read (excitation 340 nm, emission 444 nm) for 10 min. and the increase in fluorescence over time is plotted as a linear line.
(§3) For either the thiopeptide or fluorescent peptide test procedures, the slope of the line is calculated and represents the reaction rate. […]

For another assay, the target named is MMP-9 (Homo sapiens, UniProt P14780). In words: MMP-9 inhibition (thiopeptide or fluorescent peptide substrate). It is filed as biochemical. On the procedure: as §1, §2, §3
The next assay has as its target MMP-13 (Homo sapiens, UniProt P45452). Briefly: MMP-13 inhibition (thiopeptide or fluorescent peptide substrate). The assay is classed as biochemical. The method, then: as §1, §2, §3
A further assay deals with TACE (Homo sapiens, UniProt P78536). In words: TACE inhibition (fluorescent peptidyl substrate). It is filed as biochemical. On the procedure: Using 96-well black microtiter plates, each well receives a solution composed of 10 μL TACE (final concentration 1 μg/mL), 70 μL Tris buffer, pH 7.4 containing 10% glycerol (final concentration 10 mM), and 10 μL of test compound solution in DMSO (final concentration 1 μM, DMSO concentration <1%) and incubated for 10 minutes at room temperature. The reaction is initiated by addition of a fluorescent peptidyl substrate (final concentration 100 μM) to each well and then shaking on a shaker for 5 sec.
The reaction is read (excitation 340 nm, emission 420 nm) for 10 min. and the increase in fluorescence over time is plotted as a linear line. The slope of the line is calculated and represents the reaction rate.
The linearity of the reaction rate is confirmed (r^2>0.85). The mean (x±sem) of the control rate is calculated and compared for statistical significance (p<0.05) with drug-treated rates using Dunnett's multiple comparison test. Dose-response relationships can be generate using multiple doses of drug and IC50 values with 95% CI are estimated using linear regression.

A further assay deals with THP-1 cells. Briefly: THP-1 soluble protein assay (LPS-stimulated THP-1 cells, ELISA). The settings on record: Homo sapiens. The assay is classed as cell-based. The text has this:
Mitogenic stimulation of THP-1 cells cause differentiation into macrophage like cells with concomitant secretion of tumor necrosis factor (TNF-_) and TNF receptor (TNF-R p75/80 and TNF-R p55/60) and Interleukin-8 (IL-8), among other proteins. In addition, non-stimulated THP-1 cells shed both the p75/80 and the p55/60 receptors over time. The release of membrane bound TNF-_ and possibly TNF-R p75/80 and TNF-R p55/60, but not IL-8, is mediated by an enzyme called TNF-_ converting enzyme or TACE.
THP-1 cells (from ATCC) are a human monocytic cell line which were obtained from the peripheral blood of a person with acute monocytic leukemia. […]
To perform an assay, the THP-1 cells are co-incubated in a 24 well plate with […] of a 24 mg/ml stock of Lipopolysacharide (LPS) (Calbiochem Lot#B13189) at 37iC in 5% CO2 at a concentration of 1.091×10^6 cells/ml (1.1 ml/well) for a total of 24 hours. […] Compounds can be evaluated for their effect on basal (non-stimulated) shedding of the receptors by replacing the LPS with […] of THP-1 media. […]
In addition, at the 24 hours timepoint, and the cells for each treatment group are collected by resuspension in 500 μl/well of THP-1 media and transferred into a FACS tube. […] The samples are run on a Becton Dickinson FaxCaliber FLOW cytometry machine and the amount of dye taken up by each cell is measured in the high red wavelength (FL3). […]

MMP-9, sequence (P14780 94-707): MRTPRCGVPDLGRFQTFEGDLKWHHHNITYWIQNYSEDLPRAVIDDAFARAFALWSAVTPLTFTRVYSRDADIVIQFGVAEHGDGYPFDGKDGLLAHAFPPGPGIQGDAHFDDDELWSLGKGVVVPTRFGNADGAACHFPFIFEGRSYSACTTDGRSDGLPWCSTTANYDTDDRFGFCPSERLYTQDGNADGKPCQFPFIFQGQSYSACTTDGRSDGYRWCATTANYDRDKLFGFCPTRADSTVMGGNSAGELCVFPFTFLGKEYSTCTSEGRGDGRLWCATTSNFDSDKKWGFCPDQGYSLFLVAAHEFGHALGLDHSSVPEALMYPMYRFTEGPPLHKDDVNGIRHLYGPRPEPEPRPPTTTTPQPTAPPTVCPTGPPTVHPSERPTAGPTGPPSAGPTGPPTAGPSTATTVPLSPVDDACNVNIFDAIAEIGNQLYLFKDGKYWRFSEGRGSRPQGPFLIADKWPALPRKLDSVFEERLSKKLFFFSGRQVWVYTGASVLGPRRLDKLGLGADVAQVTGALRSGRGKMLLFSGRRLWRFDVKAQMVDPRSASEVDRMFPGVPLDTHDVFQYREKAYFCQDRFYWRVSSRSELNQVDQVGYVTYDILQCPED
TACE, sequence (P78536 215-824): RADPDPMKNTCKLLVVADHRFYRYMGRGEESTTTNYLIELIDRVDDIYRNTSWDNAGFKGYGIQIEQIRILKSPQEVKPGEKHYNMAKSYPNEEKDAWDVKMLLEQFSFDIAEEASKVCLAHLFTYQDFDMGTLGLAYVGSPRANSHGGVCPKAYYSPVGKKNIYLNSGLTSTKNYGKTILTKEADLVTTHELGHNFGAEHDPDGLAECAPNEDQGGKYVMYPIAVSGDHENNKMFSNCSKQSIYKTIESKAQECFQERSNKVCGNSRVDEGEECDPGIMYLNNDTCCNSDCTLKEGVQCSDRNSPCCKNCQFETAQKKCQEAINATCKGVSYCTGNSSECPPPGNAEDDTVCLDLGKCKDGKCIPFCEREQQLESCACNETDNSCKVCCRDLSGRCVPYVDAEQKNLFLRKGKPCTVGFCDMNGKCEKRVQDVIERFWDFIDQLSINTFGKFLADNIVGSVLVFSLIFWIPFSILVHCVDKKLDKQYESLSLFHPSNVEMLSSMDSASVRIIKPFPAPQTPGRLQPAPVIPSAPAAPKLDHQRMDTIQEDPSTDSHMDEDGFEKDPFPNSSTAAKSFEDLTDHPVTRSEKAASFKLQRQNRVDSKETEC

For orientation: IC50 means the midpoint of a concentration-inhibition curve. Low readings indicate inhibition by little substance, high ones a need for much substance. A word on the inhibition: it is how much of the control response was suppressed. Low readings indicate a weak effect, high ones a strong effect. As to `CC#CCOc1ccc(S(=O)(=O)N(C)[C@H](C)CS)cc1` [Example 8, 4-But-2-ynyloxy-N-((1R)-2-mercapto-1-methyl-ethyl)-N-methyl-benzenesulfonamide], the IC50 against MMP-1 came out at 6300 nM; on MMP-9, 2700 nM; on MMP-13, 679 nM; against TACE it was 273 nM. In addition, in the assay on THP-1 cells, testing at 3 µM gave an inhibition of 3%.
